Laboratory results taken from patent US20150272184A1, “NARINGENIN AND SALTS THEREOF FOR SWEETNESS ENHANCEMENT” (International Flavors & Fragrances Inc., priority 2014, published 2015).
Where two headings read alike, the source gives them in different places.

Assays:
[1] = Paired comparison of sweetness, sucrose solutions in water with or without naringenin; type: in vivo, human; conditions: for Number of Samples Rated Sweeter: 26 paired samples
Description: The term “sweetness” or “sweetness intensity” is understood to mean the relative strength of sweet sensation as observed or experienced by an individual, e.g., a human, or a degree or amount of sweetness detected by a taster, for example on the scale from 0 (none) to 8 (very strong) used in sensory evaluations according to the procedure described in American Society for Testing Materials, Special Technical Publication-434: “Manual on Sensory Testing Methods,” ASTM International, West Conshohocken, Pa. (1996). Sucrose solutions of different concentrations were prepared in water. A naringenin (AuNutra Industries Inc) solution was also prepared in water (100 ppm) and used in all of the following examples. Each test group contained 26 paired samples. In each paired samples, a sucrose solution of a higher concentration was compared for sweetness against that of a lower concentration but in combination with naringenin. The results were represented by the numbers of samples rated as sweeter in paired comparisons, which were then statistically analyzed using binomial distribution for two-sided comparisons at 95% confidence level.

[2] = Paired comparison of sweetness, Reb A solutions in water with or without naringenin; type: in vivo, human
Description: The term “sweetness” or “sweetness intensity” is understood to mean the relative strength of sweet sensation as observed or experienced by an individual, e.g., a human, or a degree or amount of sweetness detected by a taster, for example on the scale from 0 (none) to 8 (very strong) used in sensory evaluations according to the procedure described in American Society for Testing Materials, Special Technical Publication-434: “Manual on Sensory Testing Methods,” ASTM International, West Conshohocken, Pa. (1996). Sucrose solutions of different concentrations were prepared in water. A naringenin (AuNutra Industries Inc) solution was also prepared in water (100 ppm) and used in all of the following examples. Each test group contained 26 paired samples. In each paired samples, a sucrose solution of a higher concentration was compared for sweetness against that of a lower concentration but in combination with naringenin. The results were represented by the numbers of samples rated as sweeter in paired comparisons, which were then statistically analyzed using binomial distribution for two-sided comparisons at 95% confidence level. The evaluation is reported in the following: Reb A solutions of different concentrations were prepared in water and the sweetness enhancement by naringenin was similarly evaluated.

[3] = Paired comparison of sweetness, sucrose & Reb A combination with or without naringenin; type: in vivo, human
Description: The term “sweetness” or “sweetness intensity” is understood to mean the relative strength of sweet sensation as observed or experienced by an individual, e.g., a human, or a degree or amount of sweetness detected by a taster, for example on the scale from 0 (none) to 8 (very strong) used in sensory evaluations according to the procedure described in American Society for Testing Materials, Special Technical Publication-434: “Manual on Sensory Testing Methods,” ASTM International, West Conshohocken, Pa. (1996). Sucrose solutions of different concentrations were prepared in water. A naringenin (AuNutra Industries Inc) solution was also prepared in water (100 ppm) and used in all of the following examples. Each test group contained 26 paired samples. In each paired samples, a sucrose solution of a higher concentration was compared for sweetness against that of a lower concentration but in combination with naringenin. The results were represented by the numbers of samples rated as sweeter in paired comparisons, which were then statistically analyzed using binomial distribution for two-sided comparisons at 95% confidence level. The evaluation is reported in the following: The sweetness enhancement of sucrose & Reb A combination by naringenin was also evaluated.

[4] = Sweetness enhancement of artificial sweetener sucralose by naringenin; type: in vivo, human; conditions: sucralose (40 ppm), naringenin 100 ppm
Protocol: (§1) Sucrose solutions of different concentrations were prepared in water. A naringenin (AuNutra Industries Inc) solution was also prepared in water (100 ppm) and used in all of the following examples. In addition, the sweetness enhancement of (i) sucralose (40 ppm), (ii) aspartame (120 ppm) and (iii) acesulfame potassium (120 ppm) by naringenin was also evaluated, respectively.

[5] = Sweetness enhancement of artificial sweetener aspartame by naringenin; type: in vivo, human; conditions: aspartame (120 ppm), naringenin 100 ppm
Protocol: as §1

[6] = Sweetness enhancement of artificial sweetener acesulfame potassium by naringenin; type: in vivo, human; conditions: acesulfame potassium (120 ppm), naringenin 100 ppm
Protocol: as §1

[7] = Flavor profile of non-fat plain yogurt with 5% sucrose plus naringenin of different concentrations; type: in vivo, human
Protocol: A Danone Non-Fat Plain Yogurt with 5% sucrose was prepared and used as the base. Different amount of naringenin was added to the base to obtain naringenin samples of a series of concentrations ranging from 10 to 1000 ppm.

[8] = Flavor profile of Reb A water solution (10 ppm) plus naringenin of different concentrations; type: in vivo, human
Protocol: A Reb A water solution (10 ppm) was prepared and used as the base. Different amount of naringenin was added to the base to obtain naringenin samples of a series of concentrations ranging from 10 to 1000 ppm.

[9] = cited from earlier work
[10] = cited from earlier work; remark: listed apart in the source
[11] = pair Sucrose (0.5%) vs Naringenin (100 ppm in water), p 0.40

In the case of OC[C@H]1O[C@@](CO)(O[C@H]2O[C@H](CO)[C@@H](O)[C@H](O)[C@H]2O)[C@@H](O)[C@@H]1O [Sucrose, sucrose, reference compound], the “Number of Samples Rated Sweeter” value [1, 11] is reported as 10, the “Number of Samples Rated Sweeter” value ([1]; pair Sucrose (4.4%) vs Sucrose (4%) + Naringenin (100 ppm), p 0.01, significant) is reported as 6 and the “Number of Samples Rated Sweeter” value ([1]; pair Sucrose (4.8%) vs Sucrose (4%) + Naringenin (100 ppm), p >0.40) is reported as 14.
With C=C1C[C@@]23CC[C@H]4[C@@](C)(CCC[C@@]4(C)C(=O)O[C@@H]4O[C@H](CO)[C@@H](O)[C@H](O)[C@H]4O)[C@@H]2CC[C@]1(O[C@@H]1O[C@H](CO)[C@@H](O)[C@H](O[C@@H]2O[C@H](CO)[C@@H](O)[C@H](O)[C@H]2O)[C@H]1O[C@@H]1O[C@H](CO)[C@@H](O)[C@H](O)[C@H]1O)C3 [Reb A, rebaudioside A, reference compound] the “Number of Samples Rated Sweeter” value ([2]; pair 140 ppm Reb A vs 100 ppm Reb A + Naringenin (100 ppm), p 0.05, significant) was 19 and the “Number of Samples Rated Sweeter” value ([2]; pair Reb A (120 ppm) vs Reb A (120 ppm) + Naringenin (100 ppm), p 0.01, significant) was 5.
In the case of O=C1CC(c2ccc(O)cc2)Oc2cc(O)cc(O)c21 (centres unmarked) [Naringenin, 2,3-dihydro-5,7-dihydroxy-2-(4-hydroxyphenyl)-4H-1-benzopyran-4-one], the “sweetness enhanced to a level of a sucrose solution” value ([1]; naringenin 100 ppm in combination with a 4% sucrose solution) is reported as 4.8%, the “intrinsic sweetness, approximate level of a sucrose solution” value ([1]; naringenin 100 ppm in water alone) is reported as about 0.5% and the “enhancement of sucrose sweetness” value ([1]; naringenin 100 ppm with 4% sucrose solution) is reported as “more than an additive effect”. For the same molecule, the “Number of Samples Rated Sweeter” value [1, 11] was 16, the “enhancement of Reb A sweetness” value ([2]; naringenin 100 ppm) was “significantly enhanced” and the “enhancement compared with that provided by additional Reb A” value ([2]; naringenin 100 ppm with 100 ppm Reb A, ppm of Reb A) was under 40 ppm. The “enhancement of the sweetness of sucrose & Reb A combination” value ([3]; naringenin 100 ppm) was “significantly enhanced”, the “enhancement compared with that achieved by Reb A” value ([3]; naringenin 100 ppm with Reb A (10 ppm) + Sucrose (4%), ppm of Reb A) was over 20 ppm and the sweetness enhancement [4] was “enhanced sweetness with an impact up front”. For the same molecule, the sweetness enhancement [5] was “enhanced sweetness with an impact up front”, the sweetness enhancement [6] was “enhanced sweetness with an impact up front” and the “Flavor Profile” value ([7]; Sample 2, naringenin 10 ppm in yogurt with 5% sucrose) was “Same as the base”. The “Flavor Profile” value ([7]; Sample 3, naringenin 50 ppm in yogurt with 5% sucrose) was “Minor increase in sweetness”, the “Flavor Profile” value ([7]; Sample 4, naringenin 75 ppm in yogurt with 5% sucrose) was “Slightly more increase in sweetness” and the “Flavor Profile” value ([7]; Sample 5, naringenin 100 ppm in yogurt with 5% sucrose) was “Clear increase in sweetness”. The “Flavor Profile” value ([7]; Sample 6, naringenin 250 ppm in yogurt with 5% sucrose) was “More intense and full-body sweetness”, the “Flavor Profile” value ([7]; Sample 7, naringenin 500 ppm in yogurt with 5% sucrose) was “Full-body sweetness with good impact” and the “concentration at which naringenin exhibited sweetness enhancement” value ([7]; yogurt with 5% sucrose) was at least 50 ppm. The “concentration at which undesirable off-notes developed” value ([7]; yogurt with 5% sucrose) was 1000 ppm, the “concentration at which naringenin exhibited sweetness enhancement” value ([8]; Reb A water solution (10 ppm)) was at least 50 ppm and the “concentration at which undesirable off-notes developed” value ([8]; Reb A water solution (10 ppm)) was 750 ppm. The “Flavor Profile” value ([8]; Sample 2, naringenin 10 ppm in Reb A water solution (10 ppm)) was “Same as that of the base”, the “Flavor Profile” value ([8]; Sample 3, naringenin 50 ppm in Reb A water solution (10 ppm)) was “Very minor increase in sweetness” and the “Flavor Profile” value ([8]; Sample 4, naringenin 75 ppm in Reb A water solution (10 ppm)) was “Slightly more increase in sweetness”. The “Flavor Profile” value ([8]; Sample 5, naringenin 100 ppm in Reb A water solution (10 ppm)) was “Clear increase in sweetness with an impact up”, the “Flavor Profile” value ([8]; Sample 6, naringenin 250 ppm in Reb A water solution (10 ppm)) was “Intense sweetness with a stronger impact up” and the “Flavor Profile” value ([8]; Sample 7, naringenin 500 ppm in Reb A water solution (10 ppm)) was “Intense sweetness with a strong impact up front”. For the same molecule, the “Flavor Profile” value ([8]; Sample 8, naringenin 750 ppm in Reb A water solution (10 ppm)) was “More intense sweetness with increased waxy”, the solubility ([9]; in aqueous solutions) was “sparingly soluble” and the solubility ([9]; in ethanol, ether, oils (e.g., olive oil or citrus oil) and supercritical carbon dioxide) was “soluble”. The aftertaste modifier effect ([10]; U.S. Publication No. 2009/0004360) was “decreases the perception of bitterness or undesirable flavor”, the “taste of naringenin itself” value ([10]; in vivo) was “weak to no sweet taste” and the “taste and flavor performance” value ([10]; tested up to a concentration of 10 ppm, U.S. Publication No. 2014/0170082) was “exhibits bitterness and unpleasant aftertaste, and performs poorly on flavor”.
